Test system: human integrin α4
Test: Inhibition of human integrin α4 protein levels by antisense oligonucleotides (LIPOFECTIN, flow cytometry with CD49d-FITC) in A375 melanoma cells
Format: cell-based
Parameters: % Inhib.: tested at 200 nM
Conditions: for % Control (integrin α4 protein) / % Inhib (integrin α4 protein): Table 1, 200 nM oligonucleotide, 6 ug/ml LIPOFECTIN; for inhibition (Example 11): Example 11 assay, dose not stated; for % CONTROL 48 hr / % INHIB 48 hr / % CONTROL 72 hr / % INHIB 72 HR: Table 2, A375
Text: Integrin α4 protein levels can be quantitated in a variety of ways well known in the art, such as immunoprecipitation, Western blot analysis (immunoblotting), ELISA or fluorescence-activated cell sorting (FACS). Antibodies directed to integrin α4 can be identified and obtained from a variety of sources, such as the MSRS catalog of antibodies (Aerie Corporation, Birmingham, Mich.), or can be prepared via conventional antibody generation methods.
Target sites are indicated by nucleotide numbers, as given in the sequence source reference (GenBank accession no. L12002), to which the oligonucleotide binds. All compounds in Table 1 are 18 nucleotides in length, with a phosphorothioate backbone and a centered 10-base deoxynucleotide gap flanked by 2'-methoxyethoxy (2'MOE) wings. Human A375 melanoma cells (American Type Culture Collection, Manassas, Va.) were plated at 2000 cells/cm^2 two days before oligonucleotide treatment. Cells were treated with oligonucleotides at a dose of 200 nM oligonucleotide and 6 ug/ml LIPOFECTIN for four hours. Cells were incubated overnight and harvested with 2 mM EDTA in PBS. Cells were washed in 2% bovine serum albumin, 0.2% sodium azide in D-PBS at 4° C. Cells were centrifuged at 200×g, and the supernatant was decanted. […] Antibodies were incubated with the cells for 30 minutes at 4° C. in the dark, under gentle agitation. Cells were washed again as above and then resuspended in 0.3 ml of FacsFlow buffer with 0.5% formaldehyde. Cells were analyzed on Becton Dickinson FACScan. Results are expressed as percentage of control expression based on mean fluorescence intensity.
Cells were harvested with trypsin at 48 and 72 hours after oligonucleotide treatment and stained with 2 ug/ml CD49d-FITC as in the previous example.
Where backbones are mixed, linkages are shown as "s" for phosphorothioate (P=S or PS) and "o" for phosphodiester (P=O or PO). Where target region is indicated as `M62841,` oligonucleotides are targeted to the promotor region whose sequence is described in GenBank Accession No. M62841. Remaining oligonucleotides are targeted to the sequence described in Genbank Accession No. L12002 and their target sites on the L12002 sequence are indicated.
Target sites refer to nucleotide numbers on the target sequence (GenBank Accession No. L12002) to which the oligonucleotides hybridize.
Oligonucleotides were synthesized as "gapmers" consisting of a 9-nucleotide region of deoxynucleotides flanked by three 2'-O-methoxyethyl(2'-MOE) nucleotides on the 5' end and eight 2'-MOE nucleotides on the 3' end. 2'-MOE nucleotides are shown in bold in the table. Oligonucleotides were synthesized with phosphorothioate backbones throughout, and all cytosines are 5-methylcytosines.

[1] = Table 24, A375 cells, lipofectin, as Example 8

## 24469 (GTCCAAACATACTTAACG; chemistry not given here) [compound 24469]
A375 cells
  % Control (integrin α4 protein): 68%
  % Inhib (integrin α4 protein): 32%

## 24739 (TTTAGTGACAAAGACGTTAT; phosphorothioate deoxy, further chemistry not given here) [compound 24739]
Table 4, 10 nM
  % Control: 69%
  % Inhib.: 31%
Table 4, 30 nM
  % Control: 67%
  % Inhib.: 33%
Table 4, 100 nM
  % Control: 121%
Table 4, 300 nM
  % Control: 107%

## 24442 (ATGAGGCGCAGCGTGTCC; chemistry not given here) [compound 24442]
A375 cells
  % Control (integrin α4 protein): 82%
  % Inhib (integrin α4 protein): 18%

## 24740 (GAAGGCCCCTGGGGAACATT; phosphorothioate deoxy, further chemistry not given here) [compound 24740]
Table 4, 10 nM
  % Control: 122%
Table 4, 30 nM
  % Control: 119%
Table 4, 100 nM
  % Control: 106%
Table 4, 300 nM
  % Control: 88%
Table 4, 300 nM (highest dose)
  % Inhib.: 12%

## 24473 (TCAGGGTGGCTTAAAGAA; chemistry not given here) [compound 24473]
  inhibition (Example 11): ≥ 40%
A375 cells
  % Control (integrin α4 protein): 53%
50 nM
  % CONTROL 48 hr: 77%
  % INHIB 48 hr: 23%
  % CONTROL 72 hr: 85%
  % INHIB 72 HR: 35%
100 nM
  % CONTROL 48 hr: 49%
  % INHIB 48 hr: 51%
  % CONTROL 72 hr: 77%
  % INHIB 72 HR: 23%
200 nM
  % CONTROL 48 hr: 39%
  % INHIB 48 hr: 61%
  % CONTROL 72 hr: 61%
  % INHIB 72 HR: 39%
400 nM
  % CONTROL 48 hr: 42%
  % INHIB 48 hr: 58%
  % CONTROL 72 hr: 56%
  % INHIB 72 HR: 44%
Table 6, 10 nM
  % Control: 103%
Table 6, 30 nM
  % Control: 92%
Table 6, 100 nM
  % Control: 81%
  % Inhib.: 19%
Table 6, 300 nM
  % Control: 47%
Table 6, 300 nM (highest dose)
  % Inhib.: 53%

## 24742 (TTTAGTGACAAAGACGTTAT; phosphorothioate, 2'-MOE, 5-methyl-C, further chemistry not given here) [compound 24742]
Table 4, 10 nM
  % Control: 112%
Table 4, 30 nM
  % Control: 107%
Table 4, 100 nM
  % Control: 123%
Table 4, 300 nM
  % Control: 128%

## 24445 (CCCGGGTTCGCGCCTCGC; chemistry not given here) [compound 24445]
A375 cells
  % Control (integrin α4 protein): 73%
  % Inhib (integrin α4 protein): 27%

## 107229 (antisense AGTCCGCAGAGCGCGGGATG; chemistry not given here) [compound 107229]
[1]
  % Control: 104%

## 107257 (antisense TGAAATGAACCTCTGCCCAC; chemistry not given here) [compound 107257]
[1]
  % Control: 44%

## 26643 (TTGCCCTTATATGAGAAACA; phosphorothioate, 2'-MOE, 5-methyl-C, further chemistry not given here) [compound 26643]
Table 4, 10 nM
  % Control: 90%
  % Inhib.: 10%
Table 4, 30 nM
  % Control: 95%
Table 4, 100 nM
  % Control: 93%
Table 4, 300 nM
  % Control: 66%
Table 4, 300 nM (highest dose)
  % Inhib.: 34%

## 107230 (antisense AGACTCGCGTCCTGGCCCGG; chemistry not given here) [compound 107230]
[1]
  % Control: 73%
  % Inhib.: 27%

## 24474 (ATCCATTTTCAACACAGT; chemistry not given here) [compound 24474]
A375 cells
  % Control (integrin α4 protein): 71%
  % Inhib (integrin α4 protein): 29%

## 24453 (GCTTATTTTCATTCTTTA; chemistry not given here) [compound 24453]
  inhibition (Example 11): ≥ 40%
A375 cells
  % Control (integrin α4 protein): 47%
50 nM
  % CONTROL 48 hr: 79%
  % INHIB 48 hr: 21%
  % CONTROL 72 hr: 78%
  % INHIB 72 HR: 22%
100 nM
  % CONTROL 48 hr: 95%
  % CONTROL 72 hr: 93%
200 nM
  % CONTROL 48 hr: 38%
  % INHIB 48 hr: 62%
  % CONTROL 72 hr: 64%
  % INHIB 72 HR: 36%
400 nM
  % CONTROL 48 hr: 41%
  % INHIB 48 hr: 59%
  % CONTROL 72 hr: 58%
  % INHIB 72 HR: 42%
Table 6, 10 nM
  % Control: 88%
  % Inhib.: 12%
Table 6, 30 nM
  % Control: 90%
  % Inhib.: 10%
Table 6, 100 nM
  % Control: 80%
  % Inhib.: 20%
Table 6, 300 nM
  % Control: 43%
Table 6, 300 nM (highest dose)
  % Inhib.: 57%

## 24458 (CCTAAATAACTTCCAAAT; chemistry not given here) [compound 24458]
A375 cells
  % Control (integrin α4 protein): 88%
  % Inhib (integrin α4 protein): 12%

## 107243 (antisense CCAGCCTTCCACATAACATA; chemistry not given here) [compound 107243]
[1]
  % Control: 39%

## 24459 (GAAAATGACCAGCTCCGA; chemistry not given here) [compound 24459]
A375 cells
  % Control (integrin α4 protein): 61%
  % Inhib (integrin α4 protein): 39%

## 26640 (CCACTGATTGTCTCTCTCTT; phosphorothioate, 2'-MOE/deoxy, further chemistry not given here) [compound 26640]
  inhibition (Example 11): ≥ 40%
Table 6, 10 nM
  % Control: 91%
Table 6, 30 nM
  % Control: 83%
  % Inhib.: 17%
Table 6, 100 nM
  % Control: 62%
  % Inhib.: 38%
Table 6, 300 nM
  % Control: 35%
Table 6, 300 nM (highest dose)
  % Inhib.: 65%

## 26642 (TCAGGGTGGCTTAAAGAAGC; phosphorothioate, 2'-MOE/deoxy, further chemistry not given here) [compound 26642]
  inhibition (Example 11): ≥ 40%
Table 6, 10 nM
  % Control: 84%
  % Inhib.: 16%
Table 6, 30 nM
  % Control: 77%
  % Inhib.: 23%
Table 6, 100 nM
  % Control: 56%
  % Inhib.: 44%
Table 6, 300 nM
  % Control: 23%
Table 6, 300 nM (highest dose)
  % Inhib.: 77%
[1]
  % Control: 67%
  % Inhib.: 33%

## 24461 (CCACAGCACAGACAGAAG; chemistry not given here) [compound 24461]
A375 cells
  % Control (integrin α4 protein): 69%
  % Inhib (integrin α4 protein): 31%

## 24447 (GTGGCTGTGCAGCACGAC; chemistry not given here) [compound 24447]
A375 cells
  % Control (integrin α4 protein): 76%
  % Inhib (integrin α4 protein): 24%

## 24440 (CGGGTGCTCGCGCTGCTT; chemistry not given here) [compound 24440]
A375 cells
  % Control (integrin α4 protein): 101%

## 24470 (TATCTGCATCAATTTGTC; chemistry not given here) [compound 24470]
A375 cells
  % Control (integrin α4 protein): 83%
  % Inhib (integrin α4 protein): 17%

## 24464 (TTTGTTTCCATTGCATTC; chemistry not given here) [compound 24464]
A375 cells
  % Control (integrin α4 protein): 62%
  % Inhib (integrin α4 protein): 38%

## 24446 (GCGCGCTCTCAGTGTCCA; chemistry not given here) [compound 24446]
A375 cells
  % Control (integrin α4 protein): 58%
  % Inhib (integrin α4 protein): 42%

## 24457 (TTATTTGTAGTTATATTG; chemistry not given here) [compound 24457]
A375 cells
  % Control (integrin α4 protein): 106%

## 24463 (TACACAAACACTCTTCCT; chemistry not given here) [compound 24463]
A375 cells
  % Control (integrin α4 protein): 101%

## 107238 (antisense TCCTTGCCCTTATATGAGAA; chemistry not given here) [compound 107238]
[1]
  % Control: 49%

## 24455 (TCACATAATCTTGATAAC; chemistry not given here) [compound 24455]
A375 cells
  % Control (integrin α4 protein): 81%
  % Inhib (integrin α4 protein): 19%

## 24476 (CAATTTGAAAGAAGTCCT; chemistry not given here) [compound 24476]
A375 cells
  % Control (integrin α4 protein): 99%
